Data: ChEMBL document CHEMBL5649166, “RIP3 induces apoptosis independent of pronecrotic kinase activity” (Mol Cell, 2014)
Calls of active or inactive are those of the source. No cut-off for these calls is given here.

Experiments:
[1] = target: Serine/threonine-protein kinase mTOR (Homo sapiens) (UniProt P42345); test: Inhibition of human mTOR/FRAP1 using at 1 uM in presence of 32P-ATP by Hotspot assay relative to control
3T3SA [2] = test: Induction of apoptosis in mouse 3T3SA cells incubated for 18 hrs in presence of zVAD by Cell Titer-Glo luminescent cell viability assay; assay type: toxicity, cell-based
MEF [3] = test: Induction of apoptosis in cFLIPL-/- MEF cells transfected with cFLIPL expressing retrovirus incubated for 18 hrs by Cell Titer-Glo luminescent cell viability assay; assay type: toxicity, cell-based; conditions: mouse
3T3SA [4] = test: Induction of apoptosis in vICA expression plasmid transfected mouse 3T3SA cells co-transfected with shRNA-resistant RIP3 K51A mutant incubated for 12 hrs by Cell Titer-Glo luminescent cell viability assay; assay type: toxicity, cell-based
SVEC4-10 [5] = test: Inhibition of DAI-induced necroptosis in wildtype MCMV infected mouse SVEC4-10 cells assessed as increase in cell viability at 10 uM incubated for 18 hrs by Cell Titer-Glo luminescent cell viability assay; assay type: functional, cell-based
L929 [6] = test: Inhibition of TLR-3 induced necroptosis in mouse L929 cells assessed as increase in cell viability upto 10 uM incubated for 18 hrs in presence of poly(I:C) and zVAD by Cell Titer-Glo luminescent cell viability assay; assay type: functional, cell-based
MEF [7] = test: Induction of apoptosis in MEF cells expressing wildtype RIP3 incubated for 18 hrs by Cell Titer-Glo luminescent cell viability assay; assay type: toxicity, cell-based; conditions: mouse
L929 [8] = test: Inhibition of TLR-3 induced necroptosis in mouse L929 cells assessed as increase in cell viability at 1 uM incubated for 18 hrs in presence of poly(I:C) by Cell Titer-Glo luminescent cell viability assay; assay type: functional, cell-based
MEF [9] = test: Induction of apoptosis in MEF cells expressing RIP3 K51A/K51A mutant incubated for 18 hrs by Cell Titer-Glo luminescent cell viability assay; assay type: toxicity, cell-based; conditions: mouse
3T3SA [10] = test: Induction of apoptosis in RIP3 shRNA transfected mouse 3T3SA cells co-transfected with shRNA resistant RIP3 assessed as accumulation of wildtype RIP3 in pellet incubated for 3 hrs in presence of zVAD by immunoblot analysis; assay type: toxicity, cell-based
3T3SA [11] = test: Inhibition of TNF-alpha induced necroptosis in mouse 3T3SA cells at 10 uM incubated for 18 hrs in presence of zVAD by SYTOX green uptake assay; assay type: functional, cell-based
MEF [12] = test: Induction of apoptosis in RIP3-/- MEF cells expressing dox-induced RIP3 K51A mutant assessed as RIP1-RIP3 association incubated for 1 hrs by immunoblot analysis; assay type: toxicity, cell-based; conditions: mouse
3T3SA [13] = test: Inhibition of necroptosis in mouse 3T3SA cells incubated for 18 hrs in presence of Nec-1 by Cell Titer-Glo luminescent cell viability assay; assay type: functional, cell-based
MEF [14] = test: Induction of apoptosis in […] MEF cells incubated for 18 hrs by Cell Titer-Glo luminescent cell viability assay; assay type: toxicity, cell-based; conditions: mouse
3T3SA [15] = test: Induction of apoptosis in mouse 3T3SA cells transfected with RIP3 shRNA assessed as accumulation of cleaved caspase-3 by measuring percentage of cleaved caspase-3 positive cells measured after 8 hrs by immunoblot analysis (reference value: 11%); assay type: toxicity, cell-based
SVEC4-10 [16] = test: Inhibition of DAI-induced necroptosis in wildtype MCMV infected mouse SVEC4-10 cells assessed as increase in cell viability at 10 uM incubated for 18 hrs in presence of zVAD by Cell Titer-Glo luminescent cell viability assay; assay type: functional, cell-based
MEF [17] = test: Induction of apoptosis in TNF-/- MEF cells incubated for 18 hrs by Cell Titer-Glo luminescent cell viability assay; assay type: toxicity, cell-based; conditions: mouse
3T3SA [18] = test: Induction of apoptosis in vICA expression plasmid transfected mouse 3T3SA cells co-transfected with shRNA-resistant RIP3 D143N mutant incubated for 12 hrs by Cell Titer-Glo luminescent cell viability assay; assay type: toxicity, cell-based
3T3SA [19] = test: Induction of apoptosis in mouse 3T3SA cells transfected with Caspase8 siRNA assessed as cleaved caspase 8 accumulation incubated for 2.5 hrs by immunoblot analysis; assay type: toxicity, cell-based
3T3SA [20] = test: Induction of apoptosis in vICA expression plasmid transfected mouse 3T3SA cells co-transfected with shRNA-resistant empty vector incubated for 12 hrs by Cell Titer-Glo luminescent cell viability assay; assay type: toxicity, cell-based
MEF [21] = test: Induction of apoptosis in RIP3-/- MEF cells expressing dox-induced wildtype RIP3 assessed as RIP1-RPI3 association incubated for 1 hrs by immunoblot analysis; assay type: toxicity, cell-based; conditions: mouse
[22] = target: Nuclear factor NF-kappa-B complex (Homo sapiens) (UniProt Q00653+P19838+Q04206); test: Activation of NFkappaB (unknown origin) transfected in mouse 3T3SA cells incubated for 2.5 hrs; assay type: cell-based; conditions: filed as activator
Chain of Nuclear factor NF-kappa-B complex (Homo sapiens) (P19838 whole entry, looked up): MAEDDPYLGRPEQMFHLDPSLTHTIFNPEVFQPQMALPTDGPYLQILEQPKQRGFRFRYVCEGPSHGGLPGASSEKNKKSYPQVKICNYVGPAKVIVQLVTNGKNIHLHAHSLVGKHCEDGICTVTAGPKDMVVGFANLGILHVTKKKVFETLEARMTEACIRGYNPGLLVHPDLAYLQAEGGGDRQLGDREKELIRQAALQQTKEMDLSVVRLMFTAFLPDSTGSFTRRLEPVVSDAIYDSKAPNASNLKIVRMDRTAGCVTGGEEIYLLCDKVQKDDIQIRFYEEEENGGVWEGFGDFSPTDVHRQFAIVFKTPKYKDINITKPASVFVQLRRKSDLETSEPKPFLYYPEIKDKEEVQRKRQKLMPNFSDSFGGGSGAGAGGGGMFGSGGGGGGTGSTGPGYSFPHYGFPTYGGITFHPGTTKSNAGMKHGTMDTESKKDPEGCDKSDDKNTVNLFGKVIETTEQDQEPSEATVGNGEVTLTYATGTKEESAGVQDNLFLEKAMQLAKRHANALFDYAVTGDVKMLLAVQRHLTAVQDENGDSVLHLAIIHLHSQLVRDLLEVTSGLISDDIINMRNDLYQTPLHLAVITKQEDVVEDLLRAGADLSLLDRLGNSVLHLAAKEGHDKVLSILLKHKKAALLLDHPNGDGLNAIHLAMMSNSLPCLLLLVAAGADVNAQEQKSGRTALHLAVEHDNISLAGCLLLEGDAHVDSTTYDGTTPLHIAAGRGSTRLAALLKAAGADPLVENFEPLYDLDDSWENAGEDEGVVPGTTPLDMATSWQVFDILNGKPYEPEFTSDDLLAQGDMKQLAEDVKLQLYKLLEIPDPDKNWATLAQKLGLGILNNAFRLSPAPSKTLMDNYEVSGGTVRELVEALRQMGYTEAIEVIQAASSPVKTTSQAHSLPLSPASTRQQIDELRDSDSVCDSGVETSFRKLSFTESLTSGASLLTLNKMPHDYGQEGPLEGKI
Chain of Nuclear factor NF-kappa-B complex (Homo sapiens) (Q00653 whole entry, looked up): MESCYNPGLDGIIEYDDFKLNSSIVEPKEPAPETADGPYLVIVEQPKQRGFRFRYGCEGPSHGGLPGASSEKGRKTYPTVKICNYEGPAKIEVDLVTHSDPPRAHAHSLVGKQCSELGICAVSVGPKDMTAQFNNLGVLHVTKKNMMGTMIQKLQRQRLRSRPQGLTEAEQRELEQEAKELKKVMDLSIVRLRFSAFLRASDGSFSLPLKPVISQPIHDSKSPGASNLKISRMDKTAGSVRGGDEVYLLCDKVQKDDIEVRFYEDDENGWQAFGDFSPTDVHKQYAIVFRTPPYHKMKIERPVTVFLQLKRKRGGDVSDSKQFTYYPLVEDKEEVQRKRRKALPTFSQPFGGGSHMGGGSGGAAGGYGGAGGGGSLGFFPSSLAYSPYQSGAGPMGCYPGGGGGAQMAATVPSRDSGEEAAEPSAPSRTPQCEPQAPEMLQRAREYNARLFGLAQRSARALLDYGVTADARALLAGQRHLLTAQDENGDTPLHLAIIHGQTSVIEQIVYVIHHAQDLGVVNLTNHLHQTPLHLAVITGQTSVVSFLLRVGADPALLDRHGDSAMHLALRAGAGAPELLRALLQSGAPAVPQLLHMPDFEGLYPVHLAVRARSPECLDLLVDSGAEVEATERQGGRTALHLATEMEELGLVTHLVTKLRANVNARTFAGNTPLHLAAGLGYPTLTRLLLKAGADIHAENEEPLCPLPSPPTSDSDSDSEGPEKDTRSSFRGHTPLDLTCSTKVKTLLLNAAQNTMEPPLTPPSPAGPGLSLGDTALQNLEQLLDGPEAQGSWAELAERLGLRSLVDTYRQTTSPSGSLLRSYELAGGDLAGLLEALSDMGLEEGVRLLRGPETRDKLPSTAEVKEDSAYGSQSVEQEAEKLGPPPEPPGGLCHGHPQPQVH
Chain of Nuclear factor NF-kappa-B complex (Homo sapiens) (Q04206 whole entry, looked up): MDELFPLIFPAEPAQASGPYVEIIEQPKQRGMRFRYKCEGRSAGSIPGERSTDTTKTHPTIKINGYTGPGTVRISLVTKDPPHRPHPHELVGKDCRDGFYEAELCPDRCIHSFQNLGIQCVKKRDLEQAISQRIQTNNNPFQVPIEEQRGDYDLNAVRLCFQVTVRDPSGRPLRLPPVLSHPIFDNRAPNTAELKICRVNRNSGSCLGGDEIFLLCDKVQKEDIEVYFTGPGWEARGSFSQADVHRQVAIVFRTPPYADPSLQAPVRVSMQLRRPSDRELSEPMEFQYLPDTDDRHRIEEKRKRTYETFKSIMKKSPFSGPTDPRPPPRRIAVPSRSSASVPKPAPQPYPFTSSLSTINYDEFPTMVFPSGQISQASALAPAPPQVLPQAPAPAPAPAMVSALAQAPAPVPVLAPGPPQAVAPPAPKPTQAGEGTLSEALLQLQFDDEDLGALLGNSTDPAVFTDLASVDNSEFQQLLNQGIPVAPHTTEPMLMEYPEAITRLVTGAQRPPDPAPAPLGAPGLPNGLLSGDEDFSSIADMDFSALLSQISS

3T3SA [23] = test: Induction of apoptosis in RIP3shRNA transfected mouse 3T3SA cells co-transfected with shRNA-resistant RIP3 K51A mutant pre-tranfected for 16 hrs followed by compound addition and measured after 18 hrs in presence of zVAD by Cell Titer-Glo luminescent cell viability assay; assay type: toxicity, cell-based
MEF [24] = test: Induction of apoptosis in cFLIPL-/- MEF cells transfected with cFLIPL expressing retrovirus assessed as increase in caspase 8 proteolytic activity incubated for 4 hrs; assay type: toxicity, cell-based; conditions: mouse
MEF [25] = test: Induction of apoptosis in Casp8-/- MEF cells incubated for 18 hrs by Cell Titer-Glo luminescent cell viability assay; assay type: toxicity, cell-based; conditions: mouse
3T3SA [26] = test: Induction of apoptosis in mouse 3T3SA cells assessed as membrane blebbing incubated for 2.5 hrs; assay type: toxicity, cell-based
3T3SA [27] = test: Induction of apoptosis in mouse 3T3SA cells assessed as accumulation of cleaved caspase-3 by measuring percentage of cleaved caspase-3 positive cells measured after 2.5 hrs in presence of zVAD by immunoblot analysis (reference value: 4%); assay type: toxicity, cell-based
3T3SA [28] = test: Induction of apoptosis in mouse 3T3SA cells assessed as accumulation of cleaved caspase-3 by measuring percentage of cleaved caspase-3 positive cells measured after 2.5 hrs by immunoblot analysis (reference value: 4%); assay type: toxicity, cell-based
3T3SA [29] = test: Induction of apoptosis in RIP3shRNA transfected mouse 3T3SA cells co-transfected with shRNA-resistant RIP3 D161N mutant pre-tranfected for 16 hrs followed by compound addition and measured after 18 hrs in presence of zVAD by Cell Titer-Glo luminescent cell viability assay; assay type: toxicity, cell-based
3T3SA [30] = test: Induction of apoptosis in mouse 3T3SA cells incubated for 18 hrs in presence of Nec-1 by Cell Titer-Glo luminescent cell viability assay; assay type: toxicity, cell-based
[31] = target: Ephrin type-A receptor 6 (Homo sapiens) (UniProt Q9UF33); test: Inhibition of human EPHA6 using poly[Glu:Tyr] (4:1) as substrate at 1 uM in presence of 32P-ATP by Hotspot assay relative to control; values are per cent of control
Chain of Ephrin type-A receptor 6 (Homo sapiens) (Q9UF33 whole entry): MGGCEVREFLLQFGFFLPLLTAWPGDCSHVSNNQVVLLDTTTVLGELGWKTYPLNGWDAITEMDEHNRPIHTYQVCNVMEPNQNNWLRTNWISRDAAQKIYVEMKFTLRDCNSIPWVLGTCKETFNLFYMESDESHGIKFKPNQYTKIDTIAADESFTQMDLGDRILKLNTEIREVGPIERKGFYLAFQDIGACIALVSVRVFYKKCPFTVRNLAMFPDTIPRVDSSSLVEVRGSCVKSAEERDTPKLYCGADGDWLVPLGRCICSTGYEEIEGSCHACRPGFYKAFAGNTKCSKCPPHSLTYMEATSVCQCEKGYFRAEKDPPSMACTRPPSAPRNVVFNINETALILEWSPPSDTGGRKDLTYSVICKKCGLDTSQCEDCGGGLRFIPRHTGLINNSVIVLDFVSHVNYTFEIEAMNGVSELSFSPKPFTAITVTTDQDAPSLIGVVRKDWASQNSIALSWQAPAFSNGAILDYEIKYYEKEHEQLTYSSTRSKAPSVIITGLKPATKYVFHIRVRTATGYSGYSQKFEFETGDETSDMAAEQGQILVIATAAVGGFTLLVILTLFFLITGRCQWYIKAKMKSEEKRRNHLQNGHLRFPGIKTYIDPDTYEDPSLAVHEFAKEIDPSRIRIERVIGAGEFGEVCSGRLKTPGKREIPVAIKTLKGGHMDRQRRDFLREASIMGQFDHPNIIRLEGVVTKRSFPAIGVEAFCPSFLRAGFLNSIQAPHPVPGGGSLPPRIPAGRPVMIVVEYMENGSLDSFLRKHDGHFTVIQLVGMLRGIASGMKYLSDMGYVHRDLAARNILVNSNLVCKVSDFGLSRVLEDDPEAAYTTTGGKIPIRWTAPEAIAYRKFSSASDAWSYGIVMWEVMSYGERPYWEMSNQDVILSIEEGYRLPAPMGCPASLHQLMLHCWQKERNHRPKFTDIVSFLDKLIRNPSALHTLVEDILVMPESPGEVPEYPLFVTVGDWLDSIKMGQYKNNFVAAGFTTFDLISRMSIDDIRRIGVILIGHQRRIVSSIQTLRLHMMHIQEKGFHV

[32] = target: MAP kinase-interacting serine/threonine-protein kinase 1 (Homo sapiens) (UniProt Q9BUB5); test: Inhibition of human MNK1 using myelin basic protein as substrate at 1 uM in presence of 32P-ATP by Hotspot assay relative to control; values are per cent of control
Chain of MAP kinase-interacting serine/threonine-protein kinase 1 (Homo sapiens) (Q9BUB5 whole entry, looked up): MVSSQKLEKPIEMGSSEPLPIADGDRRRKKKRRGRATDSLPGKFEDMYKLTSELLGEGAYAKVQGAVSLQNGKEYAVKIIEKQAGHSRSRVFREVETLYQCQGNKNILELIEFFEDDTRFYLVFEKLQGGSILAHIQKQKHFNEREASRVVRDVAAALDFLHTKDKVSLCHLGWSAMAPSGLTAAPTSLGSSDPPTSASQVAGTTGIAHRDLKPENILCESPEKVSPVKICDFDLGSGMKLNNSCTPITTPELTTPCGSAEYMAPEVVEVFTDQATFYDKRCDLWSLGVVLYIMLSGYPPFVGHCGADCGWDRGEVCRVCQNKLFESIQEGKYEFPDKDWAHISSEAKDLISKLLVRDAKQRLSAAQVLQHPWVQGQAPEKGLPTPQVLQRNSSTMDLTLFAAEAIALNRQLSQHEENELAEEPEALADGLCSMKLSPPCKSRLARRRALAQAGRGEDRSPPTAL

[33] = target: Serine/threonine-protein kinase ULK3 (Homo sapiens) (UniProt Q6PHR2); test: Inhibition of human ULK3 using myelin basic protein as substrate at 1 uM in presence of 32P-ATP by Hotspot assay relative to control; values are per cent of control
Chain of Serine/threonine-protein kinase ULK3 (Homo sapiens) (Q6PHR2 whole entry): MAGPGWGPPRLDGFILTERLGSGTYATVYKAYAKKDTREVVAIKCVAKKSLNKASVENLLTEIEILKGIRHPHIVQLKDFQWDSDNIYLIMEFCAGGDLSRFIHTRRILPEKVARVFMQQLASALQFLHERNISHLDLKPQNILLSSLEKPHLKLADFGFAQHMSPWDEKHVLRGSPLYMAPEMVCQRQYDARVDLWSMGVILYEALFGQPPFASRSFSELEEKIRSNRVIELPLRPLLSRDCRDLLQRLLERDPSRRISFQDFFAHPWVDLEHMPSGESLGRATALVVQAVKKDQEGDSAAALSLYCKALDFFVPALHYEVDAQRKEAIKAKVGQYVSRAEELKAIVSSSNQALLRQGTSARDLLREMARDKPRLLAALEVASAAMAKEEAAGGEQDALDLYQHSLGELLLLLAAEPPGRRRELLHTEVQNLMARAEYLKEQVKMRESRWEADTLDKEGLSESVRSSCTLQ

SMILES: Cc1cc(-c2cnc(N)c3c(-c4ccc5scnc5c4)csc23)n(C)n1
- inhibition [1]: 60.8%

SMILES: CC(C)S(=O)(=O)c1ccc2nccc(Nc3ccc4scnc4c3)c2c1
- Activity (3T3SA [2]): Non-Toxic
- Activity (MEF [3]): Toxic
- Activity (3T3SA [4]): Non-Toxic
- inhibition (SVEC4-10 [5]): inactive
- inhibition (L929 [6]): Active
- Activity (MEF [7]): Toxic
- inhibition (L929 [8]): Active
- Activity (MEF [9]): Toxic
- Activity (3T3SA [10]): Toxic
- Activity (3T3SA [11]): Active
- Activity (MEF [12]): Toxic
- inhibition (3T3SA [13]): Active
- Activity (MEF [14]): Non-Toxic
- Activity (3T3SA [15]): 12.1%
- inhibition (SVEC4-10 [16]): Active
- Activity (MEF [17]): Toxic
- Activity (3T3SA [18]): Non-Toxic
- Activity (3T3SA [19]): Non-Toxic
- Activity (3T3SA [20]): Non-Toxic
- Activity (MEF [21]): Toxic
- Activity [22]: Active
- Activity (3T3SA [23]): Non-Toxic
- Activity (MEF [24]): Toxic
- Activity (MEF [25]): Non-Toxic
- Activity (3T3SA [26]): Toxic
- Activity (3T3SA [27]): 3%
- Activity (3T3SA [28]): 29%
- Activity (3T3SA [29]): Non-Toxic
- Activity (3T3SA [30]): Non-Toxic

SMILES: CNC(=O)c1ccc2c(c1)ncn2-c1ccc(CC(=O)OC(C)(C)C)cc1
- residual activity [31]: 88.9%
- residual activity [32]: 99.7%
- residual activity [33]: 95.4%
